# Values of other authors in patent US20030134332A1, “Diagnosis of endothelial dysfunction by nitric oxide bioactivity index” (priority 2001, published 2003).
# How the values were obtained:
# [1] = test system: plasma isoprostane (oxidant stress marker); details: diabetic men, 600 mg twice daily for seven days
# [2] = test system: wound healing in diabetic mice
substance,measurement,setting,value
"2-(2,3-dihydro-5-acetoxy-4,6,7-trimethylbenzofuranyl) acetic acid [raxofelast]",fall of plasma isoprostane levels in diabetics,[1],50%
same,effect on wound healing,[2],stimulates wound healing
